Measured values published in the NIST ThermoML archive (doi:10.1021/acs.jced.7b00106).
± gives the expanded uncertainty stated by the source.

Conditions: Liquid, Hot wire method

FC(F)(F)/C=C/Cl [(E)-1-chloro-3,3,3-trifluoroprop-1-ene]
thermal conductivity (422.96 K, 4305 kPa): 0.05253 ± 0.0032 W/m/K
thermal conductivity (422.96 K, 20042 kPa): 0.06564 ± 0.0037 W/m/K
thermal conductivity (422.97 K, 20051 kPa): 0.06568 ± 0.0014 W/m/K
thermal conductivity (423 K, 10141 kPa): 0.05847 ± 0.00068 W/m/K
thermal conductivity (423 K, 10146 kPa): 0.05853 ± 0.00068 W/m/K
thermal conductivity (423 K, 25690 kPa): 0.06899 ± 0.00079 W/m/K
thermal conductivity (423.02 K, 28110 kPa): 0.07042 ± 0.0022 W/m/K
thermal conductivity (423.03 K, 28120 kPa): 0.07037 ± 0.00086 W/m/K
thermal conductivity (423.04 K, 17472 kPa): 0.06399 ± 0.002 W/m/K
thermal conductivity (423.04 K, 17483 kPa): 0.06401 ± 0.00088 W/m/K
thermal conductivity (423.05 K, 25698 kPa): 0.06896 ± 0.00087 W/m/K
thermal conductivity (423.06 K, 8781 kPa): 0.05726 ± 0.00088 W/m/K
thermal conductivity (423.06 K, 8783 kPa): 0.05728 ± 0.00068 W/m/K
thermal conductivity (423.07 K, 7608 kPa): 0.05614 ± 0.0007 W/m/K
thermal conductivity (423.07 K, 7616 kPa): 0.05619 ± 0.00075 W/m/K
thermal conductivity (423.07 K, 15379 kPa): 0.06256 ± 0.00085 W/m/K
thermal conductivity (423.08 K, 15382 kPa): 0.06257 ± 0.00085 W/m/K
thermal conductivity (423.1 K, 6613 kPa): 0.05516 ± 0.001 W/m/K
thermal conductivity (423.11 K, 6611 kPa): 0.05515 ± 0.001 W/m/K
thermal conductivity (423.11 K, 22703 kPa): 0.06725 ± 0.0011 W/m/K
thermal conductivity (423.11 K, 28104 kPa): 0.07029 ± 0.0024 W/m/K
thermal conductivity (423.12 K, 22728 kPa): 0.06757 ± 0.00082 W/m/K
thermal conductivity (423.12 K, 28121 kPa): 0.07049 ± 0.0008 W/m/K
thermal conductivity (423.14 K, 5716 kPa): 0.05419 ± 0.0019 W/m/K
thermal conductivity (423.15 K, 5712 kPa): 0.0542 ± 0.0023 W/m/K
thermal conductivity (423.15 K, 13390 kPa): 0.06109 ± 0.00084 W/m/K
thermal conductivity (423.15 K, 13399 kPa): 0.06114 ± 0.00072 W/m/K
thermal conductivity (423.2 K, 4943 kPa): 0.05335 ± 0.003 W/m/K
thermal conductivity (423.2 K, 4945 kPa): 0.0533 ± 0.0015 W/m/K
thermal conductivity (423.2 K, 11667 kPa): 0.05975 ± 0.0027 W/m/K
thermal conductivity (423.21 K, 11671 kPa): 0.05977 ± 0.00079 W/m/K
thermal conductivity (423.21 K, 20041 kPa): 0.06545 ± 0.00085 W/m/K
thermal conductivity (423.21 K, 20058 kPa): 0.06566 ± 0.00096 W/m/K
thermal conductivity (423.26 K, 25692 kPa): 0.06895 ± 0.00089 W/m/K
thermal conductivity (423.26 K, 25702 kPa): 0.06897 ± 0.00091 W/m/K
thermal conductivity (423.27 K, 10146 kPa): 0.05849 ± 0.00098 W/m/K
thermal conductivity (423.28 K, 10147 kPa): 0.05852 ± 0.00098 W/m/K
thermal conductivity (423.29 K, 17476 kPa): 0.06396 ± 0.0035 W/m/K
thermal conductivity (423.3 K, 17478 kPa): 0.064 ± 0.0034 W/m/K
thermal conductivity (423.3 K, 28106 kPa): 0.07034 ± 0.0012 W/m/K
thermal conductivity (423.31 K, 28126 kPa): 0.07033 ± 0.0038 W/m/K
thermal conductivity (423.32 K, 8771 kPa): 0.05728 ± 0.0011 W/m/K
thermal conductivity (423.33 K, 8783 kPa): 0.05728 ± 0.00086 W/m/K
thermal conductivity (423.35 K, 7611 kPa): 0.05616 ± 0.0013 W/m/K
thermal conductivity (423.35 K, 7616 kPa): 0.05621 ± 0.0013 W/m/K
thermal conductivity (423.35 K, 15369 kPa): 0.06251 ± 0.00073 W/m/K
thermal conductivity (423.35 K, 15382 kPa): 0.06259 ± 0.00078 W/m/K
thermal conductivity (423.37 K, 22716 kPa): 0.06724 ± 0.0051 W/m/K
thermal conductivity (423.37 K, 22722 kPa): 0.06728 ± 0.008 W/m/K
thermal conductivity (423.38 K, 6613 kPa): 0.0552 ± 0.0011 W/m/K
thermal conductivity (423.38 K, 28103 kPa): 0.07024 ± 0.0011 W/m/K
thermal conductivity (423.39 K, 28113 kPa): 0.07028 ± 0.0041 W/m/K
thermal conductivity (423.4 K, 6606 kPa): 0.05518 ± 0.001 W/m/K
thermal conductivity (423.43 K, 13394 kPa): 0.06111 ± 0.00071 W/m/K
thermal conductivity (423.44 K, 5711 kPa): 0.05425 ± 0.0016 W/m/K
thermal conductivity (423.44 K, 5715 kPa): 0.05429 ± 0.0026 W/m/K
thermal conductivity (423.44 K, 13394 kPa): 0.06111 ± 0.00071 W/m/K
thermal conductivity (423.48 K, 20043 kPa): 0.06561 ± 0.0024 W/m/K
thermal conductivity (423.48 K, 20053 kPa): 0.06564 ± 0.00096 W/m/K
thermal conductivity (423.49 K, 11667 kPa): 0.05991 ± 0.0007 W/m/K
thermal conductivity (423.49 K, 11670 kPa): 0.05977 ± 0.00087 W/m/K
thermal conductivity (423.54 K, 25699 kPa): 0.06893 ± 0.0019 W/m/K
thermal conductivity (423.55 K, 25702 kPa): 0.06894 ± 0.0019 W/m/K
thermal conductivity (423.56 K, 10145 kPa): 0.05848 ± 0.00087 W/m/K
thermal conductivity (423.56 K, 10147 kPa): 0.05849 ± 0.00087 W/m/K
thermal conductivity (423.57 K, 17456 kPa): 0.06393 ± 0.00072 W/m/K
thermal conductivity (423.57 K, 17477 kPa): 0.0642 ± 0.00093 W/m/K
thermal conductivity (423.6 K, 28105 kPa): 0.07025 ± 0.00085 W/m/K
thermal conductivity (423.62 K, 8777 kPa): 0.05731 ± 0.00086 W/m/K
thermal conductivity (423.62 K, 28121 kPa): 0.07026 ± 0.0015 W/m/K
thermal conductivity (423.63 K, 8770 kPa): 0.05731 ± 0.00072 W/m/K
thermal conductivity (423.63 K, 15380 kPa): 0.06255 ± 0.001 W/m/K
thermal conductivity (423.64 K, 15380 kPa): 0.06256 ± 0.001 W/m/K
